The term IC50 denotes the concentration at which inhibition is half-maximal.

This is an account of results in patent US20180066004A9, “MITOCHONDRIA-TARGETING PLATINUM(IV) PRODRUG” (priority 2014, published 2018).

The test system of data set [1] is nDNA. As to the kind of experiment: nDNA-Pt adduct quantification. The settings on record: treated PC3 cells, 12 h. In kind it is cell-based, human. The procedure: (§1) This might be due to the fact that for T-NP system, Platin-M needs to be released from the NPs prior to reduction to cisplatin and subsequent mtDNA interaction and all Platin-M might not have released from the NPs during the course of this experiment, mtDNA isolation was carried out after 12 h which corresponds to only ˜50% of Platin-M will be released from T-NPs (FIG. 4B).
(§2) mtDNA-Pt and nDNA-Pt Adduct Quantification: The mitochondria and nuclei were isolated according to protocol mentioned before. These fractions were further fractionated in order to isolate mitochondrial and genomic DNA, respectively. For mitochondrial DNA (mtDNA), the freshly isolated mitochondria were re-suspended in 35 μL of mitochondrial lysis buffer. To this, 5 μL of the enzyme mix was added. This was incubated at 50° C. in water bath until the solution turned clear (˜1 h). To this, 100 μL of absolute ethanol was added and the resulting solution was incubated for 10 min at −20° C. […] The resulting solution was quantified for the amount and purity of DNA by UV-Vis spectroscopy (260/280 nm) and the amount of Pt by ICP-MS. […] Reprecipitation with 70% ethanol in nanopure H2O was performed until the ratio of the absorbances at 260 and 280 nm was […]. […] The resulting solution was quantified for the amount of DNA by UV-Vis spectroscopy (260/280 nm) and the amount of Pt by ICP-MS.

The subject of data set [2] is human mesenchymal stem cells (hMSCs). The method, then:
(§3) PC3 cells (2000 cells/well), A2780/CP70 cells (2000 cells/well), SHSY-5Y (2000 cells/well), and MSC (2000 cells/well) were plated on a 96 well plate and allowed to grow overnight. The media was changed and increasing concentrations of each formulation was added. […] Control values were set at 0% cytotoxicity or 100% cell viability.

The subject of data set [3] is PC3 cells. As to the kind of experiment: XF24 MitoStress assay (OCR), PC3. In kind it is cell-based, human. The settings on record: 10 μM with respect to Pt, 12 h. The source says:
(§4) Mitochondrial Toxicity of T-NP. […] Many TPP-based small molecules were described to disrupt ΔΨm, uncouple OXPHOS, and inhibit mitochondrial respiration. Preclinical mitochondrial toxicology tests can have high positive predictive value. We examined Empty-T-NP, Empty-nontargeted-NPs (NT-NP), and DBCO-TPP induced changes in mitochondrial respiration of prostate cancer (PCa) PC3 cells and cisplatin resistant ovarian cancer A2780/CP70 cells as a measure of mitochondrial toxicity (FIG. 3B). The oxygen consumption rate (OCR) of cells is an important indicator of normal mitochondrial functions. Thus, OCR can be used as a parameter to study TPP-induced mitochondrial toxicity.
(§5) After 12 h, OCR was measured and the effects of metabolic modulators oligomycin, carbonyl cyanide 4-(trifluoromethoxy)phenylhydrazone (FCCP), antimycin A, and rotenone allowed determination of multiple parameters of mitochondrial function (FIG. 3B). […] Several parameters linked to mitochondrial respiration; spare respiratory capacity, coupling efficiency, basal respiration, ETC accelerator response, and ATP coupler response were calculated from the OCR (pMoles/min) vs. Time (min) traces in FIG. 3B.
(§6) Mitochondrial Bioenergetics. We next investigated basal respiration, coupling efficiency, and spare respiratory capacity in response to Platin-M and its NPs using a XF24 MitoStress assay kit (FIG. 5). To determine whether accumulation of Platin-M inside the mitochondrial matrix of PC3 or A2780/CP70 cells inhibited mitochondrial respiration, we measured oxygen consumption rates (OCRs) in these cells as a way of assessing OXPHOS. […] PC3 or A2780/CP70 cells were treated with Platin-M, cisplatin, T-Platin-M-NPs, NT-Platin-M-NPs for 12 h.
(§7) Mito-stress Test Analysis: Different parameters of respiration: basal respiration, coupling efficiency, and spare respiratory capacity were investigated by using Seahorse XF-24 cell Mito Stress Test Kit. Prior to the assay, XF sensor cartridges were hydrated. To each well of an XF utility plate, 1 mL of Seahorse Bioscience calibrant was added and the XF sensor cartridges were placed on top of the utility plate, and kept at 37° C. incubator without CO2 for a minimum of 12 h. PC3, A2780-CP70, SH-SY5Y, and H9C2 (FIG. S18) cells were cultured in XF24-well cell culture microplates (Seahorse Bioscience) at a density of 2.5×10^4 cells/well (except for H9C2, cell density of this cell line: 5×10^4 cells/well) (0.32 cm2) in 200 μL growth medium and then incubated for 24 h at 37° C. in 5% CO2 atmosphere. […] After 12 h, all but 50 μL of the culture medium was removed from each well and the cells were rinsed two times with 500 μL of XF stress test glycolysis optimization medium pre-warmed to 37° C. and finally 450 μL of glucose depleted optimization medium was added to each well and the plate was placed at 37° C. without CO2 for 1 h prior to assay. Different parameters of respiration were calculated by subtracting the average respiration rates before and after the addition of the electron transport inhibitors oligomycin (1.0 μM), trifluorocarbonylcyanide phenylhydrazone or FCCP (1.0 μM), an ionophore that is a mobile ion carrier, and a mixture of antimycin-A (1.0 μM) which is a complex III inhibitor and rotenone (1.0 μM), a mitochondrial inhibitor that prevents the transfer of electrons from the Fe-S center in Complex I to ubiquinone. The parameters calculated included: basal respiration (baseline respiration minus antimycin-A post injection respiration), ATP turnover (baseline respiration minus oligomycin post injection respiration), maximal respiratory capacity (FCCP stimulated respiration minus antimycin-A post injection respiration) and reserve respiratory capacity (FCCP stimulated respiration minus baseline respiration). Test articles on each well had four replicates (data not shown).

Data set [4] deals with human neuroblastoma SH-SY5Y cell line. In words: MTT cytotoxicity assay, SH-SY5Y. The data set is classed as cell-based. Conditions: free drugs 72 h, NPs media changed after 12 h plus 60 h. The procedure: (§8) In vitro cytotoxicity of Platin-M, T-Platin-M, and NT-Platin-M was assessed by the 3-(4,5-dimethylthiazol-2-yl)-2,5-diphenyltetrazolium bromide or MTT assay on PCa PC3 cell line, human neuroblastoma SH-SY5Y cell line, and cisplatin resistant A2780/CP70 ovarian cancer cell line (Table 1). The rationale behind the use of androgen independent PC3 cell line was the inherent resistance of these cells to cisplatin therapy due to enhanced repair of Pt-nDNA adducts by the NER, poor targeting, and androgen-independent PCa with reduced normal mtDNA acquire a more progressive phenotype by inducing mutations to nDNA.
as §3

In data set [5] the test system is cisplatin resistant A2780/CP70 cells. In words: XF24 MitoStress assay (OCR), A2780/CP70. Conditions: 10 μM with respect to Pt, 12 h; for ATP-linked respiration on addition of oligomycin / basal OCR levels versus control cells / stimulation of mitochondrial respiration with FCCP after oligomycin: A2780/CP70. In kind it is cell-based, human.
Description: as §4, §5, §6, §7

In data set [6] the test system is PCa PC3 cell line. As to the kind of experiment: MTT cytotoxicity assay, PC3. The data set is classed as cell-based, human. Conditions: free drugs 72 h, NPs media changed after 12 h plus 60 h. The method, then: as §8, §3
For orientation: Tetrazolium assays rely on reduction of a dye to a coloured formazan, in cell work by metabolically active cells.

Data set [7] has as its system mtDNA. As to the kind of experiment: mtDNA-Pt adduct quantification. In kind it is cell-based, human. The settings on record: treated PC3 cells. The procedure:
as §1, §2

The nature of data set [8]: Platin-M ability to form micelles (nanoprecipitation, DLS). In kind it is physicochemical. Conditions: DMF solution of Platin-M into water. The source says:
Morphology of T-Platin-M and NT-Platin-M-NPs was investigated using transmission electron microscopy (TEM) (FIG. 4A). […] Percent loading of Platin-M varied between 6 to 27% based on the percent feed with respect to polymer feed (FIG. 4A, Tables S1 and S2). Given the amphiphilic character of Platin-M with two cationic TPP head groups and lipophilic DBCO moieties, we questioned whether the high loading of Platin-M is due to formation of self-micelles.
Determination of Platin-M Ability to Form Micelles: Platin-M was dissolved in DMF to a final concentration of 1.5 mg/mL. This solution was added drop wise slowly into vigorously stirring nanopure water (10 mL) and stirred at room temperature for 3 h. This solution was then filtered and washed through Amicon filters with a MW cutoff of 100 kDa 3 times in order to ensure the removal of all residual organic solvent. Finally, the NPs were resuspended in nanopure water (1 mL) and filtered through a 0.2 μm filter. The resulting suspension was characterized by DLS.

A short description of data set [9]: Electrochemistry of Platin-M (redox potential). In kind it is physicochemical. Conditions: 1 mM in 20% DMF-PBS, 0.1 M KCl, 25° C. The source says: We recently developed a cycloaddition approach to introduce numerous functionalities on to Pt(IV) with high efficiency by keeping in mind that copper(I) based click chemistry can also cause reduction of Pt(IV). A TPP moiety was introduced on dibenzocyclooctyne (DBCO) derivative to result DBCO-TPP (FIG. 2, FIGS. S1-S4). A strain-promoted alkyne-azide cycloaddition (SPAAC) reaction between an azide-Pt(IV) precursor Platin-Az (Pathak, R. K., et al. Chem Eur J DOI: 10.1002/chem.201402573) recently developed by us and DBCO-TPP resulted Platin-M with high efficiency (FIG. 2). The prodrug Platin-M was characterized using microanalysis and spectroscopic techniques (FIGS. S5-S10). Feasible cellular reduction of Pt(IV) prodrug is required to release active cisplatin.
Electrochemistry of Platin-M: Electrochemical measurements were made at 25° C. on an analytical system model CHI 920c potentiostat from CH Instruments, Inc. (Austin, Tex.). A conventional three-electrode set-up comprising a glassy carbon working electrode, platinum wire auxiliary electrode, and an Ag/AgCl (3M KCl) reference electrode was used for electrochemical measurements. The electrochemical data were uncorrected for junction potentials. KCl was used as a supporting electrolyte. Platin-M (1 mM) solutions were prepared in 20% DMF-phosphate buffered saline (PBS) of pH 6.0 and 7.4 with 0.1 M KCl and voltammograms were recorded at different scan rates (data not shown).

As for `N.N.[Cl][Pt][Cl]` [Cisplatin, Cisdiamminedichloridoplatinum(II), reference compound], in data set [1], the Pt-nDNA adduct formation entry was “much higher than the level of cisplatin adducts in mtDNA”. In addition, the IC50 in data set [2] (hMSC, MTT, free drugs 72 h, NPs media changed after 12 h plus 60 h) worked out at 16.4 ± 0.5 µM; in data set [4], 19 µM; in [6], 13.1 ± 0.1 µM. Also, the “ATP-linked respiration on addition of oligomycin” value (“ATP-linked respiration” below) in data set [3] and in data set [5] was “attenuated” in each case. Also, the “basal OCR levels versus control cells” value in data set [3] and in data set [5] was “did not show any changes” throughout. Moreover, the “stimulation of mitochondrial respiration with FCCP after oligomycin” value (from here on “stimulation of mitochondrial respiration”) in data set [3] and in data set [5] was “comparable” in each case.

`[NH2][Pt]([NH2])([Cl])([Cl])([O]C(=O)CCCCCn1nnc2c1-c1ccccc1CN(C(=O)CCNC(=O)CCCCC[P+](c1ccccc1)(c1ccccc1)c1ccccc1)c1ccccc1-2)[O]C(=O)CCCCC[n+]1n[nH]c2c1-c1ccccc1CN(C(=O)CCNC(=O)CCCCC[P+](c1ccccc1)(c1ccccc1)c1ccccc1)c1ccccc1-2` [Platin-M]: the “mtDNA adduct compared to T-Platin-M-NP system” value in data set [7] (12 h) is reported as “marginally higher”. Moreover, the Pt-mtDNA adduct formation result in data set [7] (mtDNA isolated after 12 h) is reported as “exhibited binding with mtDNA”. For the same compound, in data set [8], the “PDI of particles from nanoprecipitation without polymer” value worked out at 0.799, the “Size of particles from nanoprecipitation without polymer” value is on record as 941.6±589.5 nm and the “Zeta Potential of particles from nanoprecipitation without polymer” value is reported as −5.38±1.66 mV. Moreover, the “toxicity in hMSCs less than in the resistant cells” value in data set [2] (human, 72 h) was roughly 3 times. In addition, in [3], the “ATP-linked respiration” value is recorded as “less reduction”, the “basal OCR levels versus control cells” value is listed as “less than control cells” and the “stimulation of mitochondrial respiration” value is “no enhancement in OCR levels”. In [5], the “inhibition of mitochondrial respiration in A2780/CP70 cells compared to PC3 cells” value was “to a greater extent”, the “ATP-linked respiration” value was “less reduction”, the “basal OCR levels versus control cells” value was “less than control cells” and the “stimulation of mitochondrial respiration” value is listed as “no enhancement in OCR levels”. In addition, in data set [9] (pH 6.0), the “Redox potential vs. Ag/AgCl” value is listed as −0.369 V and the “Redox potential vs. NHE” value is −0.269. For the same compound, in data set [9] (pH 7.4), the “Redox potential vs. Ag/AgCl” value is on record as −0.376 V and the “Redox potential vs. NHE” value was −0.275.
